Reference: patent US8030446B2, “Mutant proline-and-arginine rich peptides and methods for using the same” (Trustees of Dartmouth College, priority 2006, dated 2011)
Like-named read-outs stand apart in the source and are kept apart here. Marks after values point to notes of the source that are not given here. Ends that are not written are not given here.

How the values were obtained:
[1] = target: T1, Mammalian (Human) 20s Proteasome (Homo sapiens, UniProt P25788); test: Chymotrypsin-like (ChT-L) peptidase activity of 20S proteasome, N-succinyl-LLVY-AMC substrate; type: biochemical; details: chymotrypsin-like activity; for IC50: 15-minute pre-incubation, 1 hour at 37° C., pH 7.5, 0.03% SDS, read-out: I50
T1 construct: purchased Boston Biochem (Cambridge, Mass.)
Method: Determination of Enzymatic Activity. Mammalian (Human) 20s Proteasome was purchased from Boston Biochem (Cambridge, Mass.); substrate, N-succinyl-LLVY-AMC was purchased from SIGMA (St. Louis, Mo.); and negative control, Lactacystin, was purchased from SIGMA. […] Activity was determined by measuring the amount of a fluorescence observed upon release of the MCA group after a 1 hour incubation at 37° C. in 50 mM sodium phosphate buffer at pH 7.5 containing 0.03% SDS. Inhibition by PR-peptide was measured after a 15-minute pre-incubation at 37° C. of each peptide with 20S proteasome, followed by the addition of the substrate and the one hour incubation.

[2] = tested on: genes regulating the NF-κB pathway in human umbilical vein endothelial cells (HUVEC); test: NF-κB pathway-specific gene expression microarray in HUVEC treated with PR peptides; type: cell-based; details: for overall inhibitory effect on NF-κB pathway-related gene expression (in words): FIG. 1, averaged % inhibition over 13 down-regulated genes, relative to PR11; for AKT1 gene expression / ATF2 gene expression / CREB1 gene expression / ELK3 gene expression / JNK1 gene expression / MEK4 gene expression / MEKK1 gene expression / MEKK2 gene expression / NF-κB1 gene expression / NF-κB2 gene expression / P38 MAPK gene expression / RANK gene expression / RIP gene expression / TAK1 gene expression / TBK1 gene expression / TRAF6 gene expression: PR peptides 1 μM, 8 hours, relative to untreated controls
Method: Cell Culture. Human umbilical vein endothelial cells (HUVEC, Cambrex Bio Science Walkersville, Inc., East Rutherford, N.J.) were cultured in endothelial cell basal medium-2 supplemented with EGM-2 SINGLEQUOTS (Cambrex Bio Science Walkersville, Inc.) and FBS. Confluent HUVEC, passage 3-5, were starved overnight in medium supplemented with 0.5% FBS, 0.25% BSA and incubated with PR peptides (1 μM) for 8 hours in starvation medium.
Total RNA Extraction and Gene Profiling by Microarray. Total RNA extraction was performed using the RNEASY mini kit protocol (QIAGEN, Valencia, Calif.). The quality and quantity of total RNA was determined using RNA 6000 Nano chips (Agilent Technology, Santa Clara, Calif.).
Gene profiling was performed using pathway-specific gene expression array for NF-κB signaling transduction (HS-016.2, SuperArray Bioscience Corp.). A total of 96 cDNA fragments from genes related to NF-κB mediated signal transduction, including: NF-κB/IκB family, NF-κB responsive genes (adhesion molecules, cytokines), extracellular ligands, transmembrane receptors, adaptor proteins, signal transduction kinases, and transcription factors were printed in tetraspot format on 3.8×4.8 cm nylon array membrane. Total RNA (0.5 μg) was reverse-transcribed into cDNA labeled with biotin-dUTP according to the manufacture's protocol. After overnight hybridization at 60° C., array membranes were treated with alkaline phosphate-conjugated streptavidin followed by chemiluminescent alkaline phosphate substrate CDP-star (Applied Biosystems, Foster City, Calif.) and exposed to X-ray film. The data were extracted from raw images using […] software (SuperArray, Bioscience Corp.). After background subtraction, the level of gene expression was determined as signal intensity units relative to total array intensity signal. Statistical significant altered genes (PR peptides vs. control) at P values <0.05 were analyzed by Student's t-test, 2-tailed distribution. The data were expressed as fold change PR peptides relative to controls (untreated cells kept in similar conditions).

[3] = target: T1, Mammalian (Human) 20s Proteasome; details: Gaczynska, et al. (2003); cited from earlier work

Sequence	IC50 [1] [nM]	overall inhibitory effect on NF-κB pathway-related gene expression (in words) [2]	AKT1 gene expression ([2]; HUVEC)	ATF2 gene expression ([2]; HUVEC)	CREB1 gene expression ([2]; HUVEC)	ELK3 gene expression ([2]; HUVEC)	JNK1 gene expression ([2]; HUVEC)	MEK4 gene expression ([2]; HUVEC)	MEKK1 gene expression ([2]; HUVEC)	MEKK2 gene expression ([2]; HUVEC)	NF-κB1 gene expression ([2]; HUVEC)	NF-κB2 gene expression ([2]; HUVEC)	P38 MAPK gene expression ([2]; HUVEC)	RANK gene expression ([2]; HUVEC)	RIP gene expression ([2]; HUVEC)	TAK1 gene expression ([2]; HUVEC)	TBK1 gene expression ([2]; HUVEC)	TRAF6 gene expression ([2]; HUVEC)	20S proteasome inhibiting activity (in words) [1]	further results
RRKPRPPYLPR [Peptide K3]	819	not significantly different than PR11	1.7 fold change	−1.6* fold change	−1.6 fold change	1.4^# fold change	−3.2* fold change	−3.1* fold change	−3.2 fold change	−1.9^# fold change	−2.2 fold change	−1.2 fold change	−1.7* fold change	1.7* fold change	−2.4* fold change	−3.1^# fold change	−1.8* fold change	−1.7 fold change		number of significantly reduced genes ([2]; HUVEC, of the 13 down-regulated genes of Tables 5 and 6): 8 genes
RRRPRPPELPR [Peptide E8]	2370	reduced activity compared with PR11 or Trp12	0.8 fold change	−1.6* fold change	−1.9 fold change	^−1.8^# fold change	−1.2 fold change	−1.2 fold change	−1.0 fold change	−1.3 fold change	−1.7 fold change	−1.4 fold change	−1.5 fold change	1.5 fold change	−3.6* fold change	−1.7* fold change	−2.3^# fold change	−1.2 fold change		
RRRPRPPELPRW [Peptide E8W12]	2610	reduced activity compared with PR11 or Trp12	1.8* fold change	−1.8* fold change	−1.5 fold change	1.0 fold change	−1.8 fold change	−2.4* fold change	−1.7 fold change	−1.1 fold change	−1.6 fold change	−1.3 fold change	−1.1 fold change	1.8^# fold change	−1.5 fold change	−1.2 fold change	−1.6* fold change	−1.2 fold change	behaved much the same as the Glu8 mutant	
RRRPRPPY [PR8]																				20S proteasome inhibiting activity (in words) [3]: does not inhibit 20S activity
RRRPRPPYLPR [PR11, reference compound]	805		3.0* fold change	−2.1* fold change	−2.1* fold change	1.9* fold change	−6.5^# fold change	−3.1* fold change	−2.9* fold change	−2.6* fold change	−4.1* fold change	−3.3^# fold change	−3.6^# fold change	1.5* fold change	−10.4^# fold change	−9.2^# fold change	−2.8^# fold change	−2.4* fold change		number of genes whose expression was significantly affected ([2]; HUVEC, NF-κB array of 96 genes): 16 genes
RRRPRPPYLPRW [Peptide W12]			2.5^# fold change	−2.7^# fold change	−1.6 fold change	1.3^# fold change	−5.3* fold change	−4.0^# fold change	−4.6* fold change	−2.4^# fold change	−2.6 fold change	−1.9* fold change	−2.5^# fold change	2.1^# fold change	−5.5* fold change	−2.0^# fold change	−4.7^# fold change	−3.1* fold change	did not noticeably alter PR11 activity	
